Reference: ChEMBL document CHEMBL2331387, “Chemical probes of a trisubstituted pyrrole to identify its protein target(s) in Plasmodium sporozoites” (2013)
The source made the active and inactive calls. The rule behind the calls is not given here.

Key:
[1] = tested on: Plasmodium berghei; assay: Antimalarial activity against sporozoite stage of Plasmodium berghei infected in human HepG2 cells assessed as inhibition of sporozoite infectivity at 2 uM after 40 hrs; format: functional
[2] = tested on: Plasmodium berghei; assay: Antimalarial activity against sporozoite stage of Plasmodium berghei infected in human HepG2 cells assessed as inhibition of sporozoite infectivity at 10 uM after 40 hrs; format: functional, organism-based

Structure (SMILES)	inhibition at 2 µM ([1]; HepG2, 40 h) [%]	inhibition [2]	inhibition [1]
CN1CCC(c2cc(-c3ccncc3)c(-c3ccc(F)cc3)[nH]2)CC1	> 90		
Fc1ccc(-c2[nH]c(C3CCNCC3)cc2-c2ccncc2)cc1		Active	
O=C(CCCCCNC(=O)CCCC[C@@H]1SC[C@@H]2NC(=O)N[C@@H]21)NCCCCCC(=O)NCCN1CCC(c2cc(-c3ccncc3)c(-c3ccc(F)cc3)[nH]2)CC1		inactive	inactive
NCCN1CCC(c2cc(-c3ccncc3)c(-c3ccc(F)cc3)[nH]2)CC1		Active	
O=C(CCCC[C@@H]1SC[C@@H]2NC(=O)N[C@@H]21)NCCOCCOCCOCCOCCC(=O)NCCN1CCC(c2cc(-c3ccncc3)c(-c3ccc(F)cc3)[nH]2)CC1		inactive	inactive
